Legend:
m-calpain = molecular target: T1, m-calpain (Homo sapiens, UniProt P17655); experiment: Cleavage of purified recombinant p21cip1 by purified m-calpain; format: biochemical; conditions: purified recombinant p21^cip1 incubated with m-calpain
T1 construct: purchased Sigma (St. Louis, Mo.)
T1 sequence (P17655 1-700): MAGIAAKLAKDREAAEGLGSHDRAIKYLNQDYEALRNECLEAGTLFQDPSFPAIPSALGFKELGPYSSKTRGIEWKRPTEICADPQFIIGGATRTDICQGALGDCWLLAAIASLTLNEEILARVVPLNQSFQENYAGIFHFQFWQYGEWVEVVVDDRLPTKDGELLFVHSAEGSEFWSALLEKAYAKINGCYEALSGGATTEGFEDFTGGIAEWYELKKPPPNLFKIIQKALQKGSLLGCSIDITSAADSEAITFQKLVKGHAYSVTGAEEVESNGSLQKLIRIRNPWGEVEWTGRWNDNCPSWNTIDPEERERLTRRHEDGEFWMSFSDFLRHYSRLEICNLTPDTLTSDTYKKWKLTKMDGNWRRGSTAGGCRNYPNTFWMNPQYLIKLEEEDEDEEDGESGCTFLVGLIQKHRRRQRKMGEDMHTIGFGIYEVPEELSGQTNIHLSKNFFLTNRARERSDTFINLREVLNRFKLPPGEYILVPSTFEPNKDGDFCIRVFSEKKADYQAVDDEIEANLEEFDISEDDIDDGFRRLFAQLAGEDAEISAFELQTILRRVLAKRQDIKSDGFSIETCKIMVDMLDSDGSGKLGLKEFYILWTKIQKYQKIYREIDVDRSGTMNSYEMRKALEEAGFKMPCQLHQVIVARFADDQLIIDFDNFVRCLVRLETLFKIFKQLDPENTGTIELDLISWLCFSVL
T1 sequence (P04632 1-268 partner): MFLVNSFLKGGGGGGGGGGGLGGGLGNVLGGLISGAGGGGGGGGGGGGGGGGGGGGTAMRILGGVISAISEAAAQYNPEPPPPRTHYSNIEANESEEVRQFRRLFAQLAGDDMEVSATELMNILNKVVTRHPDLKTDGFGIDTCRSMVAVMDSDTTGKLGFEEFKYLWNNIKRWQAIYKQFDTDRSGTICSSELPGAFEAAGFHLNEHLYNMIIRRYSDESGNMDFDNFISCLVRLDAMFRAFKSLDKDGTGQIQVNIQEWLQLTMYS
Protocol: Cleavage of p21^cip1 by calpain. Recombinant p21^cip1 was provided by Harper (37) or Ke (47), and was also prepared using the expression plasmid pET-p21 (37) according to the published methods (30). To evaluate the effect of calpains on p21^cip1, 400 ng of purified recombinant p21^cip1 was incubated with 0.004 units of either pure μ-calpain or m-calpain at 30° C. for 30 minutes in 40 μl of cleavage buffer, containing 25 mM Tris-HCl (pH 7.5), 100 mM NaCl, 3 mM DTT and 5 mM CaCl2 (44). EDTA was added to 10 mM to stop the reaction. An equal volume of 2×SDS gel-loading buffer (18) was mixed with the digestion mixture and the mixture was immediately boiled for 5 min. The digestion products were evaluated by Western blot analysis or SDS-PAGE and coomassie brilliant blue staining.

[1] = test system: p21^cip1 abundance in mock-infected LU cells; experiment: Western blot of p21cip1 abundance in mock-infected, density-arrested LU cells; format: cell-based, human; conditions: E64d 100 μM, mock-infected cells
Protocol: Cell culture and growth arrest. LU cells (3) were propagated in Eagle's minimum essential medium containing 10% fetal bovine serum and penicillin (100 units/ml)/streptomycin (100 μg/ml) in a 5% CO2 in air atmosphere. The cells were density-arrested as described previously in detail (18).
Virus stocks and productive infection. The AD169 strain of HCMV was propagated in LU cells as previously described in detail (6). The infectivity of virus stocks was determined by plaque assay (3). Virus stocks typically had infectivities between 8.0×10^6 and 4.0×10^7 plaque-forming units (PFU)/milliliter. LU cells were infected with HCMV as described in detail by Bresnahan et al. (18). Virus stocks and cell cultures were routinely examined for mycoplasma.
Western blots. Polyclonal or monoclonal antibody for p21^cip1 was obtained from Santa Cruz Biotechnology, Inc. (Santa Cruz, Calif.). Monoclonal antibodies against m-calpain, μ-calpain or calpastatin were generously provided by Dr. R. I. Mellgren (see also 75). Cells were harvested as described previously (18) by dislodging the cells with a cell lifter in phosphate buffered saline. The cells were collected by sedimentation and lysed in NP-40 lysis buffer [50 mM Tris, pH 7.4, 50 mM NaCl, 0.5% NP-40, and 1 mM NaVO3, 50 mM NaF, 1mM phenylmethylsulfonyl fluoride (PMSF), 1 mM dithiothreitol (DTT), 25 μg/ml trypsin inhibitor, 25 μg/ml aprotinin, 1 mM benzamide, and 25 μg/ml pepstatin A added just before use]. Cellular debris was removed by sedimentation and the supernatant fluids were reserved. The protein concentration was determined by the BCA protein assay (Pierce, Rockford, Ill.). Whole cell extracts (40 μg/lane) were fractionated by SDS-polyacrylamide gel electrophoresis (PAGE), and the polypeptides were transferred to nitrocellulose membranes (Bio-Rad Laboratories, Hercules, Calif.) as described previously (18). Antigen-antibody reactions were detected with the enhanced chemiluminescent assay (Amersham Pharmacia Biotech) following the manufacturer's recommendations.
FIGS. 5 and 6. The effect of MG132, an inhibitor of proteasome degradation, on p21^cip1 abundance in HCMV- or mock-infected, density-arrested LU cells. 5. LU cells were density arrested, as described in Materials and Methods. The cell cultures were HCMV (5 PFU/cell)- or mock-infected and then exposed to selected concentrations of MG132 at 24 hr PI. Cell lysates were prepared at 30 hr PI (i.e., 6 hr after […] treatment), and 40 μg of protein from each lysate was resolved by SDS-PAGE. The proteins were transferred to nitrocellulose and probed with antibodies against p21^cip1. Control, cells cultured in the absence of MG132 or its solvent, DMSO. 0, DMSO solvent control, consisting of cells treated with the same concentration of DMSO (0.1%) present in the cultural fluids containing highest concentration of MG132 (10 μM). 6. Represents the abundance of p21^cip1 after MG132 treatment determined by densitometry of the data illustrated in FIG. 5. The data for mock-infected cells (open bars) were calculated relative to the p21^cip1 abundance in untreated mock-infected cells, while the data for HCMV-infected cells (closed bars) were determined relative to the p21^cip1 abundance in untreated HCMV-infected cells.
FIGS. 7 and 8. […]
At the times indicated in the FIG., whole cell lysates were prepared, and 40 μg of protein from each lysate was analyzed by SDS-PAGE. […]

SMILES: CC(C)C[C@H](NC(=O)[C@H]1O[C@@H]1C(=O)O)C(=O)NCCCCN=C(N)N (relative stereo) [E64d, trans-epoxysuccinyl-L-leucylamido (4-guanidino)-butane]
- proteolysis of p21^cip1 by m-calpain (in words) (m-calpain): inhibited the proteolysis
- effect on p21^cip1 levels in mock-infected cells (in words) [1]: little, if any, effect
- increase in p21^cip1 ([1]; 3 hr post-treatment (treatment from 48 hr PI)): ~56%
